Reference: the supplement of paper PMC11061612

How the values were obtained:
Assay in all cases: Bliss excess, mean over the matrix (fraction); higher = more synergy
[1] = system: NCI-H1793 (Lung Adenocarcinoma)
Summary of the method: (§1)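 After 24 hours at 37°C and 5% CO2 in 1536-well plates, cells in DMEM/F12 or RPMI plus 10% FBS received two-drug dose matrices for 72 hours. Viability came from CellTiter-Glo 2.0 luminescence and was scaled as inhibition, anchored at 0 by vehicle wells and at 1 by blank wells. Combination Emax is taken as the second-highest inhibition in the matrix, and Bliss excess as the observed combination effect less EA + EB − EA·EB, with EA and EB the single-agent effects.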

[2] = system: DOV13 (Ovarian Carcinoma)
Summary of the method: as §1

[3] = system: ES7 (Ewing's Sarcoma)
Summary of the method: as §1

[4] = system: LS-513 (Colorectal Carcinoma)
Summary of the method: as §1

[5] = system: NCI-H1781 (Lung Adenocarcinoma)
Summary of the method: as §1

[6] = system: SW780 (Bladder Carcinoma)
Summary of the method: as §1

[7] = system: SK-N-FI (Neuroblastoma)
Summary of the method: as §1

[8] = system: TE-5 (Esophageal Squamous Cell Carcinoma)
Summary of the method: as §1

[9] = system: CAL-78 (Chondrosarcoma)
Summary of the method: as §1

[10] = system: MDA-MB-231 (Breast Carcinoma)
Summary of the method: as §1

[11] = system: MDA-MB-157 (Breast Carcinoma)
Summary of the method: as §1

[12] = system: IGR-1 (Melanoma)
Summary of the method: as §1

[13] = system: DSH1 (Bladder Carcinoma)
Summary of the method: as §1

[14] = system: COR-L23 (Non-Small Cell Lung Carcinoma)
Summary of the method: as §1

[15] = system: MFH-ino (Other Solid Carcinomas)
Summary of the method: as §1

[16] = system: NCI-H2369 (Mesothelioma)
Summary of the method: as §1

[17] = system: HCC2157 (Breast Carcinoma)
Summary of the method: as §1

[18] = system: DMS-273 (Small Cell Lung Carcinoma)
Summary of the method: as §1

[19] = system: JiyoyeP-2003 (Burkitt's Lymphoma)
Summary of the method: as §1

[20] = system: SW1088 (Low Grade Glioma)
Summary of the method: as §1

Structure (SMILES) | Bliss excess [1] | Bliss excess [2] | Bliss excess [3] | Bliss excess [4] | Bliss excess [5] | Bliss excess [6] | Bliss excess [7] | Bliss excess [8] | Bliss excess [9] | Bliss excess [10] | Bliss excess [11] | Bliss excess [12] | Bliss excess [13] | Bliss excess [14] | Bliss excess [15] | Bliss excess [16] | Bliss excess [17] | Bliss excess [18] | Bliss excess [19] | Bliss excess [20]
Cn1cnc2c(F)c(Nc3ccc(Br)cc3Cl)c(C(=O)NOCCO)cc21 [Selumetinib] + CCN(CCO)CCCOc1ccc2c(Nc3cc(CC(=O)Nc4cccc(F)c4)[nH]n3)ncnc2c1 [AZD2811] (first compound max 10 µM, 7x7, partner max 1 µM) | -0.0302 | -0.0915 | -0.0524 | -0.0184 | 0.0045 | -0.0198 | 0.0239 | -0.0191 | -0.0522 | 0.0107 | -0.0064 | -0.007 | 0.0022 | 0.0428 | -0.045 | -0.0517 | 0.0194 | -0.0144 | -0.0053 | -0.0456
CN(C)CCCOc1ccc(-c2ccc3ncc4c(c3c2)n(C2CCOCC2)c(=O)n4C)cn1 [AZD0156] + CCN(CCO)CCCOc1ccc2c(Nc3cc(CC(=O)Nc4cccc(F)c4)[nH]n3)ncnc2c1 [AZD2811] (first compound max 1 µM, 7x7, partner max 1 µM) | -0.0309 | 0.0385 | -0.0172 | -0.0559 | 0.0374 | -0.0268 | -0.0144 | -0.0536 | 0.006 | -0.0296 | -0.0069 | -0.0235 | 0.0062 | -0.0073 | -0.0453 | -0.0392 | 0.112 | 0.0307 | 0.0832 | -0.0291
Cc1nc(Nc2ncc(C(=O)Nc3c(C)cccc3Cl)s2)cc(N2CCN(CCO)CC2)n1 [Dasatinib] + CC(=O)Nc1cccc(-n2c(=O)n(C3CC3)c(=O)c3c(Nc4ccc(I)cc4F)n(C)c(=O)c(C)c32)c1 [Trametinib] (first compound max 2 µM, 7x7, partner max 1 µM) | -0.0406 | 0.0135 | -0.0112 | 0.0777 | -0.0355 | 0.0848 | 0.0118 | -0.0099 | -0.108 | -0.0145 | -0.0026 | -0.0448 | -0.0516 | 0.0284 | -0.0838 | -0.0535 | -0.0199 | -0.0922 | 0.193 | -0.0087
NC1(C(=O)N[C@@H](CCO)c2ccc(Cl)cc2)CCN(c2ncnc3[nH]ccc23)CC1 [Capivasertib] + CC(=O)c1c(C)c2cnc(Nc3ccc(N4CCNCC4)cn3)nc2n(C2CCCC2)c1=O [Palbociclib] (first compound max 10 µM, 7x7, partner max 10 µM) | -0.0287 | 0.0055 | 0.0092 | -0.0138 | -0.0326 | -0.0119 | -0.0581 | 0.0142 | -0.0424 | -0.0024 | 0.0439 | -0.0028 | -0.0395 | -0.0252 | -0.0353 | 0.0133 | -0.0052 | -0.0309 | 0.0203 | 0.0361
CC1(C)CCC(CN2CCN(c3ccc(C(=O)NS(=O)(=O)c4ccc(NCC5CCOCC5)c([N+](=O)[O-])c4)c(Oc4cnc5[nH]ccc5c4)c3)CC2)=C(c2ccc(Cl)cc2)C1 [Venetoclax] + COc1cc(Nc2ncc3c(n2)-c2ccc(Cl)cc2C(c2c(F)cccc2OC)=NC3)ccc1C(=O)O [Alisertib] (first compound max 1 µM, 7x7, partner max 10 µM) | -0.0577 | 0.0303 | 0.0686 | -0.0655 | -0.0303 | -0.0455 | 0.0916 | -0.105 | -0.0353 | 0.0102 | 0.014 | 0.0759 | 0.128 | -0.0201 | -0.0729 | -0.0739 | 0.113 | 0.0086 | -0.0161 | 0.0049
CN(CCO)CC[C@H](CSc1ccccc1)Nc1ccc(S(=O)(=O)NC(=O)c2ccc(N3CCC([C@@H](O)c4ccccc4-c4ccc(Cl)cc4)CC3)cc2)cc1S(=O)(=O)C(F)(F)F [AZD4320] + C[C@@H]1COCCN1C2=NC(=NC(=C2)C3(CC3)[S@](=N)(=O)C)C4=C5C=CNC5=NC=C4 [AZD6738] (first compound max 1 µM, 7x7, partner max 10 µM) | -0.0272 | -0.0448 | 0.0638 | -0.0354 | -0.0005 | -0.0478 | -0.0299 | 0.0256 | 0.0071 | -0.0571 | -0.0254 | 0.0464 | 0.0405 | -0.0468 | -0.0785 | 0.0246 | 0.0014 | -0.025 | -0.0334 | -0.0732
COc1nnc2ccc(N3CCC(c4ccc(OCCN5CCN(C)C(=O)[C@H]5C)cc4)CC3)nn12 [AZD5153] + C=CCn1c(=O)c2cnc(Nc3ccc(N4CCN(C)CC4)cc3)nc2n1-c1cccc(C(C)(C)O)n1 [AZD1775] (first compound max 1 µM, partner max 1 µM) | -0.0548 | -0.0561 | -0.0364 | -0.0603 | -0.0744 | -0.0163 | -0.105 | -0.0148 | -0.0766 | -0.0768 | -0.0313 | 0.0203 | -0.132 | -0.0459 | -0.0837 | -0.0392 | -0.0734 | -0.0377 | -0.0401 | -0.0364
CC1(C)CCC(CN2CCN(c3ccc(C(=O)NS(=O)(=O)c4ccc(NCC5CCOCC5)c([N+](=O)[O-])c4)c(Oc4cnc5[nH]ccc5c4)c3)CC2)=C(c2ccc(Cl)cc2)C1 [Venetoclax] + C[C@@H](Nc1cc(F)cc(F)c1)c1cc(C(=O)N(C)C)cc2c(=O)cc(N3CCOCC3)oc12 [AZD8186] (first compound max 1 µM, 7x7, partner max 3 µM) | 0.0197 | -0.0073 | 0.135 | -0.0551 | -0.0341 | -0.0135 | -0.0178 | -0.0327 | -0.0152 | -0.0066 | 0.0095 | -0.0471 | 0.002 | -0.0328 | -0.053 | -0.0299 | 0.115 | 0.0274 | 0.0246 | -0.0044
COc1nnc2ccc(N3CCC(c4ccc(OCCN5CCN(C)C(=O)[C@H]5C)cc4)CC3)nn12 [AZD5153] + CN(CC[C@H](CSC1=CC=CC=C1)NC2=C(C=C(C=C2)S(=O)(=O)NC(=O)C3=CC=C(C=C3)N4CCC(CC4)[C@H](C5=CC=CC=C5C6=CC=C(C=C6)Cl)O)S(=O)(=O)C(F)(F)F)CCO [AZD4320] (first compound max 1 µM, 7x7, partner max 1 µM) | 0.039 |  |  |  | -0.0212 | -0.0091 |  |  | 0.132 |  |  | 0.197 |  | -0.0014 |  | -0.0032 | 0.0047 | 0.0043 | -0.0036 | 
CN(CCO)CC[C@H](CSc1ccccc1)Nc1ccc(S(=O)(=O)NC(=O)c2ccc(N3CCC([C@@H](O)c4ccccc4-c4ccc(Cl)cc4)CC3)cc2)cc1S(=O)(=O)C(F)(F)F [AZD4320] + Cn1cnc2c(F)c(Nc3ccc(Br)cc3Cl)c(C(=O)NOCCO)cc21 [Selumetinib] (first compound max 1 µM, 7x7, partner max 3 µM) | 0.0496 | -0.114 | 0.026 |  | 0.0131 | 0.0441 | 0.0296 | 0.0377 | -0.0388 | -0.0013 | 0.0259 | 0.143 | -0.0405 | 0.0645 | -0.03 | 0.0216 | 0.0119 | -0.0768 | 0.0288 | 0.0246
CCc1c2c(nc3ccc(O)cc13)-c1cc3c(c(=O)n1C2)COC(=O)[C@]3(O)CC [SN-38] + O=C(c1cc(Cc2n[nH]c(=O)c3ccccc23)ccc1F)N1CCN(C(=O)C2CC2)CC1 [Olaparib] (first compound max 0.3 µM, 7x7, partner max 10 µM) |  | 0.0456 | 0.112 | 0.0731 | 0.0788 |  | 0.0478 | 0.0521 |  | 0.107 | 0.0102 | 0.0115 | 0.0007 | 0.0328 | 0.0254 | 0.0128 |  | 0.0129 | 0.104 | 0.0683
CC(=O)c1c(C)c2cnc(Nc3ccc(N4CCNCC4)cn3)nc2n(C2CCCC2)c1=O [Palbociclib] + CN(CC[C@H](CSC1=CC=CC=C1)NC2=C(C=C(C=C2)S(=O)(=O)NC(=O)C3=CC=C(C=C3)N4CCC(CC4)[C@H](C5=CC=CC=C5C6=CC=C(C=C6)Cl)O)S(=O)(=O)C(F)(F)F)CCO [AZD4320] (first compound max 10 µM, 7x7, partner max 1 µM) | -0.0299 |  |  |  | -0.0811 | -0.136 |  |  | -0.0873 |  |  | -0.0387 |  | -0.0608 |  | -0.0408 | 0.0149 | -0.106 | -0.0053 | 
C[C@@H](c1ccc2nccn2c1)n1nnc2ncc(-c3cnn(C)c3)nc21 [Savolitinib] + CN(CC[C@H](CSC1=CC=CC=C1)NC2=C(C=C(C=C2)S(=O)(=O)NC(=O)C3=CC=C(C=C3)N4CCC(CC4)[C@H](C5=CC=CC=C5C6=CC=C(C=C6)Cl)O)S(=O)(=O)C(F)(F)F)CCO [AZD4320] (first compound max 1 µM, 7x7, partner max 1 µM) | -0.0329 |  |  |  | -0.053 | -0.0468 |  |  | -0.0906 |  |  | -0.0913 |  | -0.0349 |  | -0.0522 | -0.0331 | -0.0126 | -0.0082 | 
C=CCn1c(=O)c2cnc(Nc3ccc(N4CCN(C)CC4)cc3)nc2n1-c1cccc(C(C)(C)O)n1 [AZD1775] + C1CN(CCC1(C(=O)N[C@@H](CCO)C2=CC=C(C=C2)Cl)N)C3=NC=NC4=C3C=CN4 [Capivasertib] (first compound max 3 µM, partner max 3 µM) | 0.0373 | 0.0339 |  | -0.0514 | -0.096 | 0.0017 | -0.0442 | 0.0129 | -0.0614 | -0.0181 | -0.0818 | 0.011 | 0.0495 | 0.0185 | -0.0204 | 0.0035 | -0.0183 | -0.0053 | -0.0726 | -0.0707
